Tested on: HSV-1
Test: HSV-1 infection of Vero 76 cells, viral DNA detected by hybridization capture (chemiluminescence)
Format: cell-based
Conditions: Human alphaherpesvirus 1; HSV-1 in Vero 76 cells, MOI=0.001, 40-48 hours at 37° C.
Experimental: Vero 76 cells were maintained in MEM with Earle's salts, L-glutamine, 8% FBS (Hyclone, A-1111-L) and 100 units/mL Penicillin-100 μg/mL Streptomycin. For assay conditions, FBS was reduced to 2%. Cells are seeded into 96-well tissue culture plates at a density of 5×10^4 cells/well after being incubated for 45 min at 37° C. in the presence of HSV-1 or HSV-2 (MOI=0.001). Test compounds are added to the wells and the plates are incubated at 37° C. for 40-48 hours. Cell lysates are prepared as follows: media was removed and replaced with 150 VL/well 0.2 N NaOH with 1% Igepal CA 630 or NP-40. Plates were incubated up to 14 days at room temperature in a humidified chamber to prevent evaporation.
For the detection probe, a gel-purified, digoxigenin-labeled, 710-bp PCR fragment of the HSV UL-15 sequence was utilized. […]
Twenty-seven (27) μL of cell lysate was combined with 45 μL of hybridization solution (final concentration: 3M GuSCN, 50 mM EDTA, 100 μg/ml salmon sperm DNA, 5× Denhardt's solution, 0.25×APE, and 5 ng of the digoxigenin-labeled detection probe). […] The plates were incubated at room temperature for 30 minutes and chemiluminescence was measured in a Wallac Victor reader.

Row | SMILES | IC50
1 | CSc1cc(N2CCOCC2)cc2c(-c3ccnc(NC4CCCC4)n3)c(-c3ccc(F)cc3)nn12 [Example 44, N-Cyclopentyl-4-[2-(4-fluorophenyl)-7-(methylthio)-5-morpholin-4-ylpyrazolo[1,5-α]pyridin-3-yl]pyrimidin-2-amine] | 500 nM
2 | CCSc1cc(Cl)cc2c(-c3ccnc(NC4CCCC4)n3)c(-c3ccc(F)cc3)nn12 [Example 32, N-{4-[5-Chloro-7-(ethylsulfanyl)-2-(4-fluorophenyl)pyrazolo[1,5-α]pyridin-3-yl]-2-pyrimidinyl}-N-cyclopentylamine] | 2000 nM

— patent publication US7109209B2, “Pyrazolopyridines, process for their preparation and use as therapeutic compounds” (SmithKline Beecham Corporation, priority 2001, dated 2006)
